Laboratory results published in patent US20250213575A1, “8-HETEROCYCLIC-3-(PHENYLSULFONYL)-[1,2,3]TRIAZOLO[1,5A]QUINAZOLIN-5(4H)-ONE DERIVATIVES AS ANTI-BACTERIALS” (priority 2022, published 2025).

Legend:
AgrA = AgrA (Staphylococcus aureus, UniProt P0A0I7); experiment: cell-based; parameters: species or system S. aureus USA300 strain UAMS-1625; conditions: for Ratio IC50 (in presence of HSA)/IC50 (in absence of HSA): 40 mg/mL HSA vs without HSA
red blood cell (RBC) = conditions: cited from earlier work
S. aureus = conditions: after multiple passages with Savirin; cited from earlier work
MRSA USA300 type strain = conditions: mice, applied multiple times; cited from earlier work
[1] = IC50 at 40 mg/mL HSA, LB medium supplemented with 40 mg/mL human serum albumin
[2] = IC50 without HSA, LB medium, without HSA

Chain of AgrA (P0A0I7 whole entry): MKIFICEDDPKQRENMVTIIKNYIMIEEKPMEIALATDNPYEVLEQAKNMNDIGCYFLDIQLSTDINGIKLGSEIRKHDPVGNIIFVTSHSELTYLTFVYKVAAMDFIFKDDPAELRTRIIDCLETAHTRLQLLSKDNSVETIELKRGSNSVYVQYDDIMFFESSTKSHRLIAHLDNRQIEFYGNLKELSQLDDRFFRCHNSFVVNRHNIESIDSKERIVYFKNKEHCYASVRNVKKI

SMILES	Ratio IC50 (in presence of HSA)/IC50 (in absence of HSA) (AgrA)	IC50 (AgrA; [1])	IC50 (AgrA; [2])	exotoxin-induced red blood cell (RBC) lysis (red blood cell (RBC))	resistance development (S. aureus)	abscess size and dermonecrosis (MRSA USA300 type strain)
Cc1ccc(S(=O)(=O)c2nnn3c2[nH]c(=O)c2ccc(N4CCN(CCOCCO)CC4)cc23)c(C)c1 [Compound 45, 3-(2,4-dimethylbenzenesulfonyl)-8-{4-[2-(2-hydroxyethoxy)ethyl]piperazin-1-yl}-4H,5H-[1,2,3]triazolo[1,5-a]quinazolin-5-one]	+++ (ratio ≤ 25)	19 to 94.9 µM	< 1.9 µM			
Cc1ccc(S(=O)(=O)c2nnn3c2[nH]c(=O)c2ccc(N4CCCN(CCO)CC4)cc23)c(C)c1 [Compound 46, 3-(2,4-dimethylbenzenesulfonyl)-8-[4-(2-hydroxyethyl)-1,4-diazepan-1-yl]-4H,5H-[1,2,3]triazolo[1,5-a]quinazolin-5-one]	+++ (ratio ≤ 25)	20.1 to 101 µM	< 2.01 µM			
Cc1ccc(S(=O)(=O)c2nnn3c2[nH]c(=O)c2ccc(N4CCCNCC4)cc23)c(C)c1 [Compound 47, 8-(1,4-diazepan-1-yl)-3-(2,4-dimethylbenzenesulfonyl)-4H,5H-[1,2,3]triazolo[1,5-a]quinazolin-5-one]	+++ (ratio ≤ 25)	< 22.1 µM	< 2.21 µM			
Cc1ccc(S(=O)(=O)c2nnn3c2[nH]c(=O)c2ccc(N4CCCOCC4)cc23)c(C)c1 [Compound 48, 3-(2,4-dimethylbenzenesulfonyl)-8-(1,4-oxazepan-4-yl)-4H,5H-[1,2,3]triazolo[1,5-a]quinazolin-5-one]	++ (ratio ≤ 125)	22 to 110 µM	< 2.2 µM			
Cc1ccc(S(=O)(=O)c2nnn3c2[nH]c(=O)c2ccc(N4CCCN(C)CC4)cc23)c(C)c1 [Compound 49, 3-(2,4-dimethylbenzenesulfonyl)-8-(4-methyl-1,4-diazepan-1-yl)-4H,5H-[1,2,3]triazolo[1,5-a]quinazolin-5-one]	+++ (ratio ≤ 25)	21.4 to 107 µM	2.14 to 10.7 µM			
Cc1ccc(S(=O)(=O)c2nnn3c2[nH]c(=O)c2ccc(N4CC5CCC(C4)N5)cc23)c(C)c1 [Compound 50]		< 21.5 µM	2.15 to 10.8 µM			
Cc1ccc(S(=O)(=O)c2nnn3c2[nH]c(=O)c2ccc(N4CCN(CC(F)(F)F)CC4)cc23)c(C)c1 [Compound 51, 3-(2,4-dimethylbenzenesulfonyl)-8-[4-(2,2,2-trifluoroethyl)piperazin-1-yl]-4H,5H-[1,2,3]triazolo[1,5-a]quinazolin-5-one]	++ (ratio ≤ 125)	19.2 to 96.1 µM	< 1.92 µM			
Cc1ccc(S(=O)(=O)c2nnn3c2[nH]c(=O)c2ccc(N4CCN(C(=O)C(C)C)CC4)cc23)c(C)c1 [Compound 52, 3-(2,4-dimethylbenzenesulfonyl)-8-[4-(2-methylpropanoyl)piperazin-1-yl]-4H,5H-[1,2,3]triazolo[1,5-a]quinazolin-5-one]	+++ (ratio ≤ 25)	19.7 to 98.3 µM	< 1.97 µM			
Cc1ccc(S(=O)(=O)c2nnn3c2[nH]c(=O)c2ccc(N4CCN(C)C(=O)C4)cc23)c(C)c1 [Compound 53, 4-[3-(2,4-dimethylbenzenesulfonyl)-5-oxo-4H,5H-[1,2,3]triazolo[1,5-a]quinazolin-8-yl]-1-methylpiperazin-2-one]	++ (ratio ≤ 125)	21.4 to 107 µM	< 2.14 µM			
Cc1ccc(S(=O)(=O)c2nnn3c2[nH]c(=O)c2ccc(N4CCn5ccnc5C4)cc23)c(C)c1 [Compound 54, 3-(2,4-dimethylbenzenesulfonyl)-8-{5H,6H,7H,8H-imidazo[1,2-a]pyrazin-7-yl}-4H,5H-[1,2,3]triazolo[1,5-a]quinazolin-5-one]	++ (ratio ≤ 125)	21 to 105 µM	2.1 to 10.5 µM			
Cc1ccc(S(=O)(=O)c2nnn3c2[nH]c(=O)c2ccc(N4CCN(C5COC5)CC4)cc23)c(C)c1 [Compound 55, 3-(2,4-dimethylbenzenesulfonyl)-8-[4-(oxetan-3-yl)piperazin-1-yl]-4H,5H-[1,2,3]triazolo[1,5-a]quinazolin-5-one]	++ (ratio ≤ 125)	< 20.2 µM	< 2.02 µM			
Cc1ccc(S(=O)(=O)c2n[nH]n3c2nc(=O)c2ccc(N4CCN(C5CCOCC5)CC4)cc23)c(C)c1 [Compound 56, 3-(2,4-dimethylbenzenesulfonyl)-8-[4-(oxan-4-yl)piperazin-1-yl]-1H,5H-[1,2,3]triazolo[1,5-a]quinazolin-5-one]	+++ (ratio ≤ 25)	19.1 to 95.7 µM	< 1.91 µM			
Cc1ccc(S(=O)(=O)c2nnn3c2[nH]c(=O)c2ccc(N4CCN(CCN)CC4)cc23)c(C)c1 [Compound 57, 8-[4-(2-aminoethyl)piperazin-1-yl]-3-(2,4-dimethylbenzenesulfonyl)-4H,5H-[1,2,3]triazolo[1,5-a]quinazolin-5-one]	+++ (ratio ≤ 25)	20.8 to 104 µM	2.08 to 10.4 µM			
CCN(CC)CCC(=O)N1CCN(c2ccc3c(=O)[nH]c4c(S(=O)(=O)c5ccc(C)cc5C)nnn4c3c2)CC1 [Compound 58, 8-{4-[3-(diethylamino)propanoyl]piperazin-1-yl}-3-(2,4-dimethylbenzenesulfonyl)-4H,5H-[1,2,3]triazolo[1,5-a]quinazolin-5-one]		17.7 to 88.4 µM	1.77 to 8.84 µM			
Cc1ccc(S(=O)(=O)c2n[nH]n3c2nc(=O)c2ccc(N4CCN(C5CCN(C)CC5)CC4)cc23)c(C)c1 [Compound 59, 3-(2,4-dimethylbenzenesulfonyl)-8-[4-(1-methylpiperidin-4-yl)piperazin-1-yl]-1H,5H-[1,2,3]triazolo[1,5-a]quinazolin-5-one]	+++ (ratio ≤ 25)	18.7 to 93.3 µM	1.87 to 9.33 µM			
Cc1ccc(S(=O)(=O)c2nnn3c2[nH]c(=O)c2ccc(N4CCN(C5CC5)CC4)cc23)c(C)c1 [Compound 60, 8-(4-cyclopropylpiperazin-1-yl)-3-(2,4-dimethylbenzenesulfonyl)-4H,5H-[1,2,3]triazolo[1,5-a]quinazolin-5-one]	++ (ratio ≤ 125)	20.9 to 104 µM	< 2.09 µM			
Cc1ccc(S(=O)(=O)c2nnn3c2[nH]c(=O)c2ccc(N4CC5(CC(C(=O)O)C5)C4)cc23)c(C)c1 [Compound 63, 2-[3-(2,4-Dimethyl-benzenesulfonyl)-5-oxo-4,5-dihydro-[1,2,3]triazolo[1,5-a]quinazolin-8-yl]-2-aza-spiro[3.3]heptane-6-carboxylic acid]	+++ (ratio ≤ 25)	< 20.3 µM	< 2.03 µM			
Cc1ccc(S(=O)(=O)c2nnn3c2[nH]c(=O)c2ccc(N4CCC(C(=O)O)CC4)cc23)c(C)c1 [Compound 64, 1-[3-(2,4-Dimethyl-benzenesulfonyl)-5-oxo-4,5-dihydro-[1,2,3]triazolo[1,5-a]quinazolin-8-yl]-piperidine-4-carboxylic acid]	+++ (ratio ≤ 25)	< 20.8 µM	< 2.08 µM			
CC(C)c1ccc(S(=O)(=O)c2nnn3c2nc(O)c2ccccc23)cc1 [Savirin]				inhibited	No resistance was developed	significant reduction
